Test results published in paper PMC9221371, “Flavonoid Derivatives as Potential Cholinesterase Inhibitors in Scopolamine-Induced Amnesic Mice: An In Vitro, In Vivo and Integrated Computational Approach” (Brain Sciences, 2022).
Read-outs that look alike come from different tables or passages of the source.

Legend:
[1] = system: scopolamine-induced amnesic mice; assay: Novel object discrimination (NOD) task in scopolamine-induced amnesic model; format: in vivo, Balb/C mice; details: scopolamine 1 mg/kg i.p., n = 8
Protocol: (§1) The animals in the control (normal) and scopolamine amnesic groups were administered vehicle (Tween-80, 2%) only. Treated animals received F1–F5 suspended in Tween-80 (2%) p.o. at their respective doses for a period of 4 weeks. […] For assessing behavioral effects using the Y-Maze Paradigm and novel object discrimination (NOD) task, scopolamine (1 mg/kg, i.p.) was given to the different groups, 30 min after the respective treatments, to induce memory impairment (amnesia) in mice. All of the tests were performed between 8:00 a.m. and 6:00 p.m. to avoid sham results in the performance of the animals.
(§2) Behavioral tasks on the Y-Maze Paradigm and “NOD” tasks were conducted in the 5th week of study to determine learning and memory functions. The apparatus arena was cleaned with 70% ethanol during the inter-trial interval to prevent a confounding error due to the influence of odor [20, 21].
Animals were challenged for the novel object discrimination task for F1–F5 as per previously reported protocols. After habituation and acclimatization, animals in each group had two consecutive object exploration trials (5 min each) for this test, with a break of 4 h in between two trials. In the familiarization phase (sample), the animals were challenged to explore two objects similar to each other. In the second phase (test), any of the two objects was changed by a new object. Exploration time in sec for the objects, including chewing, licking, sniffing or pointing the vibrissae of nose towards the object, was recorded. The discrimination ratio (%DI) was then determined using:(T novel object − T familiar object)/(T novel object + T familiar object) × 100(1)

[2] = system: scopolamine-induced amnesic mice; assay: Y-Maze Paradigm, spontaneous alternation in scopolamine-induced amnesic model; format: in vivo, Balb/C mice; details: for Spontaneous Alternation Performance: scopolamine 1 mg/kg i.p., n = 8
From the text: (§3) For assessment of acute toxicity of the flavones (F1–F5), animals (21 in number) were divided into groups of 3 animals each. The reported protocols by Lorke were followed with slight modification to perform tests in two phases. In the first phase, one (control) group of animals were given Tween-80 (2%), and oral doses of F1–F5 were given to the remaining groups, respectively, at various doses (mg/kg body weight). […] The animals were housed in plastic cages. After two weeks, the animals were sacrificed by euthanasia with isoflurane in a humane manner for assessment of the effects on total weight and weight of the vital organs. The biochemical parameters of blood and histological studies of vital organs (kidney and liver tissue) were also assessed. […] The preliminary pharmacological activity was assessed at various dose concentrations of F1–F5 (2.5–20 mg/kg b.w.) to determine the effective dose for assessment of cognitive function using animal models.
as §1, §2
The Y-Maze task is a non-invasive and reliable behavioral test that was used for memory assessment of spontaneous alternation for F1–F5 based on previously reported protocols. A single session of Y-Maze was used to record the spontaneous alternation behavior of the animals to determine exploratory behavior and instant memory functioning. The apparatus was made of three arms in a “Y” shape (35 cm × 8 cm × 15 cm) with an equilateral triangular central area. In brief, each of the mice, previously naive to the maze, was placed at the terminal end of one arm. The animals were allowed to move and explore freely for 8 min through the maze. The number of arm entries was noted. One arm entry was considered when the hind paws of the animal were completely placed inside the arm, and the series of arm entries were documented. The spontaneous alternation in percent was calculated.

[3] = molecular target: T1, brain acetylcholinesterase (Mus musculus, UniProt P21836); format: in vivo; design: unit not given here; details: brain homogenate, n = 8
T1 construct: The brain was extracted, and a homogenate (10% w/v) in 0.1 M of phosphate buffer (pH 7.4) was prepared; from tissue; host or cells: mouse brain homogenate
Protocol: as §1
(§4) The brain was extracted, and a homogenate (10% w/v) in 0.1 M of phosphate buffer (pH 7.4) was prepared by centrifugation for the assessment of brain oxidative status and estimating brain acetylcholinesterase activity. Catalase (CAT), superoxide dismutase (SOD), glutathione (GSH) and level of lipid peroxidation (malondialdehyde, MDA) were quantified as oxidative stress markers.

[4] = system: brains of scopolamine-induced amnesic mice; assay: Antioxidant enzyme activities and oxidative stress markers in brain homogenate; format: in vivo, Balb/C mice
Protocol: as §1, §4

[5] = molecular target: T2, BuChE (equine serum lyophilized) (Equus caballus, UniProt P81908); assay: biochemical; details: triplicate; read-out: BChE IC50 (converted)
T2 construct: purchased Sigma-Aldrich (Taufkirchen, Germany); host or cells: equine serum
Protocol: (§5) Synthetic flavonoids F1–F5 previously synthesized by our group were used in the study.
(§6) For the determination of acetylcholinesterase inhibitory potentials, AChE and BuChE were used. […] To the tube were added DTNB (100 µL) and buffer (2.4 mL). The tube was incubated at 25 °C for 5 min as pre-incubation. The reaction was started by adding ATChI (40 µL), and the mixture was incubated at 25 °C for 20 min. The absorbance at 412 nm was measured spectrophotometrically in triplicate. […] The data were recorded in triplicate, and IC50 was calculated.

[6] = molecular target: T3, AChE (electric eel type-VI-S) (Electrophorus electricus, UniProt O42275); assay: biochemical; details: 25 °C, triplicate
T3 construct: purchased Sigma-Aldrich (Taufkirchen, Germany)
Protocol: as §5, §6

[7] = system: Balb/C mice; assay: Acute toxicity study; format: in vivo; details: n = 3; for ALP / AST / Creatinine / Glucose / Total Cholesterol / Triglyceride: blood; for Kidney Weight / Liver Weight / Total Weight: mice
From the text: Two weeks before the experiment, the animals were acclimatized to laboratory conditions.
as §3

[8] = 7.5 mg/kg b.w., n = 8, 7.5 mg/kg

T3 sequence (O42275 24-633): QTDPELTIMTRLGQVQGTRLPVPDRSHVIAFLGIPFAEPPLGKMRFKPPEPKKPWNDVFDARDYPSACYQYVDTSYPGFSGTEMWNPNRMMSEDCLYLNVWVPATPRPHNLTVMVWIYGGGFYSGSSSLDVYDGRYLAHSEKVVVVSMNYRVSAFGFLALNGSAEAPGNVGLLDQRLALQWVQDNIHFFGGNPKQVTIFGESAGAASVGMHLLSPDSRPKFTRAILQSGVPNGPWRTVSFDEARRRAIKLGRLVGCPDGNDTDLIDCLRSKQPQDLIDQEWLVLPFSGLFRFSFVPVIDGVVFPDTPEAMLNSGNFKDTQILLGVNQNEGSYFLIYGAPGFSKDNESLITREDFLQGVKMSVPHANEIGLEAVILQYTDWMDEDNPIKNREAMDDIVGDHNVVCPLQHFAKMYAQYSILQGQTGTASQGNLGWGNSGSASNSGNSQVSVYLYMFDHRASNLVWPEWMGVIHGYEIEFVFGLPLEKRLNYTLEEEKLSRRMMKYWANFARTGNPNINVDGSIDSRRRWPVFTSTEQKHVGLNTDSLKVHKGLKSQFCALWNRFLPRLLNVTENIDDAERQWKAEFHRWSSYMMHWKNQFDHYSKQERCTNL
T1 sequence (P21836 32-614): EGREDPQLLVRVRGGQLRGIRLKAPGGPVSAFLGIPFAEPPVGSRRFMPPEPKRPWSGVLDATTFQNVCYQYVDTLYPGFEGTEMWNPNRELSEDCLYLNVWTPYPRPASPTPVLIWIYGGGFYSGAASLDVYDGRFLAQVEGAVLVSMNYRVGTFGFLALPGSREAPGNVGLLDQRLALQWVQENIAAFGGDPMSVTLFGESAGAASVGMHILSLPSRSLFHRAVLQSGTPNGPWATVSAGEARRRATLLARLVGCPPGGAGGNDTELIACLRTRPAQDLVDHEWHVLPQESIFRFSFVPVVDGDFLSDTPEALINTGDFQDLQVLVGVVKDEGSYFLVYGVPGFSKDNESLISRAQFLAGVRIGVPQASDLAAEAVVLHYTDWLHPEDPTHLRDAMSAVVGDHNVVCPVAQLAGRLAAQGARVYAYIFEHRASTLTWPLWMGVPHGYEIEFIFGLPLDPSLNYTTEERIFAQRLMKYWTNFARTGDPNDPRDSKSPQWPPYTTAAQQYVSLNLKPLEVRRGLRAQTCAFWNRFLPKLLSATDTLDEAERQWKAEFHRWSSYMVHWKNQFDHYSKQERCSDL
T2 sequence (P81908 whole entry): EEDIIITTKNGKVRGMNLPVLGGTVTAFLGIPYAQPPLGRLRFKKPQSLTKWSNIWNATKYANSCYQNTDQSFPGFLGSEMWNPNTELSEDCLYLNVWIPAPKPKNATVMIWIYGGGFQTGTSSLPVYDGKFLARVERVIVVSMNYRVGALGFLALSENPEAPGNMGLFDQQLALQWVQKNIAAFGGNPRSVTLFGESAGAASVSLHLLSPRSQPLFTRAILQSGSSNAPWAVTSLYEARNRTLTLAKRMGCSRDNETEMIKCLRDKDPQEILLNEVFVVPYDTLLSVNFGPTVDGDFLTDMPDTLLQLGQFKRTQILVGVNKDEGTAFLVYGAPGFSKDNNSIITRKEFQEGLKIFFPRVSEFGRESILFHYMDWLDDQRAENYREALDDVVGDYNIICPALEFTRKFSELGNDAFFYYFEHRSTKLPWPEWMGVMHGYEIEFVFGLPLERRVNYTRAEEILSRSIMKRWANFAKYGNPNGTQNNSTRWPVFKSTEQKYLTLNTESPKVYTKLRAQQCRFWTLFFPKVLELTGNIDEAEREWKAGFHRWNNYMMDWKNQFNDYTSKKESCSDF

Compound: O=c1cc(-c2ccc(Cl)cc2)oc2ccccc12 [Compound F1]
- discrimination index (%DI) ([1]; 7.5 mg/kg b.w. p.o. 4 weeks): 48.67 ± 1.57%
- discrimination index (%DI) ([1]; 15 mg/kg b.w. p.o. 4 weeks): 51.11 ± 1.48%
- Spontaneous Alternation Performance ([2]; 7.5 mg/kg b.w. p.o. 4 weeks): 49.90 ± 1.33%
- Spontaneous Alternation Performance ([2]; 15 mg/kg b.w. p.o. 4 weeks): 51.78 ± 1.45%
- Spontaneous alternation performance (preliminary, selection of doses) ([2]; Table S1, dose 2.5 mg/kg b.w.): 37.02±2.11
- Spontaneous alternation performance (preliminary, selection of doses) ([2]; Table S1, dose 5 mg/kg b.w.): 38.91±1.67
- Spontaneous alternation performance (preliminary, selection of doses) ([2]; Table S1, dose 7.5 mg/kg b.w.): 49.12±1.45
- Spontaneous alternation performance (preliminary, selection of doses) ([2]; Table S1, dose 10 mg/kg b.w.): 48.66±1.98
- Spontaneous alternation performance (preliminary, selection of doses) ([2]; Table S1, dose 12.5 mg/kg b.w.): 48.98±2.01
- Spontaneous alternation performance (preliminary, selection of doses) ([2]; Table S1, dose 15 mg/kg b.w.): 51.72±1.88
- Spontaneous alternation performance (preliminary, selection of doses) ([2]; Table S1, dose 20 mg/kg b.w.): 52.03±2.03
- level of AChE ([3]; 7.5 mg/kg b.w.): 21.31 ± 0.53
- level of AChE ([3]; 15 mg/kg b.w.): 21.01 ± 0.61
- GSH ([4]; 7.5 mg/kg b.w., n = 8): 34.62 ± 1.50 μg/mg of Protein
- MDA ([4]; 7.5 mg/kg b.w., n = 8): 16.39 ± 1.28 nmol/mg Protein
- CAT [4, 8]: 21.93 ± 1.37 U/mg of Protein
- SOD [4, 8]: 8.97 ± 1.12 U/mg of Protein
- GSH ([4]; 15 mg/kg b.w., n = 8): 35.70 ± 1.47 μg/mg of Protein
- MDA ([4]; 15 mg/kg b.w., n = 8): 16.12 ± 1.47 nmol/mg Protein
- CAT ([4]; 15 mg/kg b.w., n = 8, 15 mg/kg): 22.31 ± 1.22 U/mg of Protein
- SOD ([4]; 15 mg/kg b.w., n = 8, 15 mg/kg): 9.12 ± 1.28 U/mg of Protein
- IC50 [5]: 603 µM
- IC50 [6]: 644 µM
- ALP ([7]; 600 mg/kg b.w. oral): 132.54 ± 2.78 U/L
- AST ([7]; 600 mg/kg b.w. oral): 107.89 ± 2.01 U/L
- Creatinine ([7]; 600 mg/kg b.w. oral): 0.36 ± 0.05 mg/dL
- Glucose ([7]; 600 mg/kg b.w. oral): 85.51 ± 2.33 mg/dL
- Total Cholesterol ([7]; 600 mg/kg b.w. oral): 103.19 ± 2.06 mg/dL
- Triglyceride ([7]; 600 mg/kg b.w. oral): 95.20 ± 2.76 mg/dL
- Kidney Weight ([7]; 600 mg/kg b.w. oral): 0.29 ± 0.19 g
- Liver Weight ([7]; 600 mg/kg b.w. oral): 1.24 ± 0.21 g
- Total Weight ([7]; 600 mg/kg b.w. oral): 21.82 ± 1.39 g
- ALP ([7]; 1000 mg/kg b.w. oral): 136.33 ± 2.39 U/L
- AST ([7]; 1000 mg/kg b.w. oral): 108.34 ± 2.66 U/L
- Creatinine ([7]; 1000 mg/kg b.w. oral): 0.38 ± 0.06 mg/dL
- Glucose ([7]; 1000 mg/kg b.w. oral): 86.98 ± 2.09 mg/dL
- Total Cholesterol ([7]; 1000 mg/kg b.w. oral): 102.76 ± 1.87 mg/dL
- Triglyceride ([7]; 1000 mg/kg b.w. oral): 94.78 ± 1.98 mg/dL
- Kidney Weight ([7]; 1000 mg/kg b.w. oral): 0.29 ± 0.18 g
- Liver Weight ([7]; 1000 mg/kg b.w. oral): 1.23 ± 0.26 g
- Total Weight ([7]; 1000 mg/kg b.w. oral): 22.93 ± 1.91 g
- ALP ([7]; 2000 mg/kg b.w. oral): 135.29 ± 4.17 U/L
- AST ([7]; 2000 mg/kg b.w. oral): 109.73 ± 1.98 U/L
- Creatinine ([7]; 2000 mg/kg b.w. oral): 0.34 ± 0.04 mg/dL
- Glucose ([7]; 2000 mg/kg b.w. oral): 86.45 ± 2.27 mg/dL
- Total Cholesterol ([7]; 2000 mg/kg b.w. oral): 102.05 ± 2.01 mg/dL
- Triglyceride ([7]; 2000 mg/kg b.w. oral): 96.22 ± 1.70 mg/dL
- Kidney Weight ([7]; 2000 mg/kg b.w. oral): 0.30 ± 0.20 g
- Liver Weight ([7]; 2000 mg/kg b.w. oral): 1.23 ± 0.24 g
- Total Weight ([7]; 2000 mg/kg b.w. oral): 21.79 ± 1.72 g
- ALP ([7]; 3000 mg/kg b.w. oral): 136.09 ± 3.12 U/L
- AST ([7]; 3000 mg/kg b.w. oral): 109.90 ± 2.09 U/L
- Creatinine ([7]; 3000 mg/kg b.w. oral): 0.29 ± 0.03 mg/dL
- Glucose ([7]; 3000 mg/kg b.w. oral): 85.72 ± 1.97 mg/dL
- Total Cholesterol ([7]; 3000 mg/kg b.w. oral): 101.28 ± 1.98 mg/dL
- Triglyceride ([7]; 3000 mg/kg b.w. oral): 97.41 ± 1.83 mg/dL
- Kidney Weight ([7]; 3000 mg/kg b.w. oral): 0.31 ± 0.27 g
- Liver Weight ([7]; 3000 mg/kg b.w. oral): 1.25 ± 0.29 g
- Total Weight ([7]; 3000 mg/kg b.w. oral): 22.71 ± 1.79 g

Compound: O=c1cc(-c2ccc(Cl)cc2Cl)oc2ccccc12 [Compound F2]
- Spontaneous Alternation Performance ([2]; 7.5 mg/kg b.w. p.o. 4 weeks): 47.13 ± 1.65%
- Spontaneous Alternation Performance ([2]; 15 mg/kg b.w. p.o. 4 weeks): 49.88 ± 1.28%
- CAT ([4]; 7.5 mg/kg b.w., n = 8): 22.83 ± 1.19 U/mg of Protein
- GSH ([4]; 7.5 mg/kg b.w., n = 8): 34.93 ± 1.22 μg/mg of Protein
- MDA ([4]; 7.5 mg/kg b.w., n = 8): 15.16 ± 1.21 nmol/mg Protein
- SOD ([4]; 7.5 mg/kg b.w., n = 8): 9.25 ± 1.36 U/mg of Protein
- CAT ([4]; 15 mg/kg b.w., n = 8): 23.71 ± 1.45 U/mg of Protein
- GSH ([4]; 15 mg/kg b.w., n = 8): 35.91 ± 1.39 μg/mg of Protein
- MDA ([4]; 15 mg/kg b.w., n = 8): 14.90 ± 1.33 nmol/mg Protein
- SOD ([4]; 15 mg/kg b.w., n = 8): 9.33 ± 1.45 U/mg of Protein
- IC50 [5]: 361 µM
- IC50 [6]: 451 µM
